Data as given in ChEMBL document CHEMBL2074452, “Mercapturic acids (N-acetylcysteine S-conjugates) as endogenous substrates for the renal organic anion transporter-1” (Mol Pharmacol, 2001).

Assays:
[1] = target: T1, Solute carrier family 22 member 6 (Rattus norvegicus, UniProt O35956); assay: TP_TRANSPORTER: inhibition of DNP-NAC uptake (DNP-NAC: 1 uM, PentaCl-butadiene-NAC: 1000 uM) in Xenopus laevis oocytes; format: functional, cell-based; conditions: oocyte
T1 sequence (O35956 whole entry): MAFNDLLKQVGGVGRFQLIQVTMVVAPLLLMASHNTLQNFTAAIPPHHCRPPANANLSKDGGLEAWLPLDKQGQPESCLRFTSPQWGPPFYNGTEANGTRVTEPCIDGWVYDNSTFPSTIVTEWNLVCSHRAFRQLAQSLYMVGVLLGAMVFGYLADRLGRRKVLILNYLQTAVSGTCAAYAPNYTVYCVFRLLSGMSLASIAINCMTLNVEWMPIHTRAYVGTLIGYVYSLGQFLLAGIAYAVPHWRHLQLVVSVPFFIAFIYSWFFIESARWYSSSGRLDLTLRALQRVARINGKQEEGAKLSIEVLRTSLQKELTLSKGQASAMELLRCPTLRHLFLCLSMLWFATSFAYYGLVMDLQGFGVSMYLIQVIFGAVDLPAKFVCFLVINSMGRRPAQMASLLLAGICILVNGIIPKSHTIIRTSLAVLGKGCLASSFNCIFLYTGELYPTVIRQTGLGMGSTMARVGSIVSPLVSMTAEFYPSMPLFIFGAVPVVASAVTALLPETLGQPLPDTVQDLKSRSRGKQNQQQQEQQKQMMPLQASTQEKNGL

[2] = target: T1, Solute carrier family 22 member 6; assay: TP_TRANSPORTER: inhibition of PAH uptake (PAH: 20 uM, PentaCl-butadiene-NAC: 500 uM) in Xenopus laevis oocytes; format: functional, cell-based; conditions: oocyte
[3] = target: T1, Solute carrier family 22 member 6; assay: TP_TRANSPORTER: inhibition of PAH uptake (PAH: 20 uM, diCl-vinyl-NAC: 1000 uM) in Xenopus laevis oocytes; format: functional, cell-based; conditions: oocyte
[4] = target: T1, Solute carrier family 22 member 6; assay: TP_TRANSPORTER: inhibition of DNP-NAC uptake (DNP-NAC: 1 uM, diCl-vinyl-NAC: 1000 uM) in Xenopus laevis oocytes; format: functional, cell-based; conditions: oocyte
[5] = target: T1, Solute carrier family 22 member 6; assay: TP_TRANSPORTER: inhibition of DNP-NAC uptake (DNP-NAC: 1 uM, Allyl-NAC: 1000 uM) in Xenopus laevis oocytes; format: functional, cell-based; conditions: oocyte
[6] = target: T1, Solute carrier family 22 member 6; assay: TP_TRANSPORTER: inhibition of PAH uptake (PAH: 20 uM, Allyl-NAC: 1000 uM) in Xenopus laevis oocytes; format: functional, cell-based; conditions: oocyte
[7] = target: T1, Solute carrier family 22 member 6; assay: TP_TRANSPORTER: inhibition of PAH uptake (PAH: 20 uM, Propanol-NAC: 1000 uM) in Xenopus laevis oocytes; format: functional, cell-based; conditions: oocyte
[8] = target: T1, Solute carrier family 22 member 6; assay: TP_TRANSPORTER: inhibition of DNP-NAC uptake (DNP-NAC: 1 uM, Propanol-NAC: 1000 uM) in Xenopus laevis oocytes; format: functional, cell-based; conditions: oocyte
[9] = target: T1, Solute carrier family 22 member 6; assay: TP_TRANSPORTER: inhibition of DNP-NAC uptake (DNP-NAC: 1 uM, 3-Phenyl-propyl-NAC: 1000 uM) in Xenopus laevis oocytes; format: functional, cell-based; conditions: oocyte
[10] = target: T1, Solute carrier family 22 member 6; assay: TP_TRANSPORTER: inhibition of PAH uptake (PAH: 20 uM, 3-Phenyl-propyl-NAC: 1000 uM) in Xenopus laevis oocytes; format: functional, cell-based; conditions: oocyte
[11] = target: T1, Solute carrier family 22 member 6; assay: TP_TRANSPORTER: inhibition of PAH uptake (PAH: 20 uM, Butyl-NAC: 500 uM) in Xenopus laevis oocytes; format: functional, cell-based; conditions: oocyte
[12] = target: T1, Solute carrier family 22 member 6; assay: TP_TRANSPORTER: inhibition of DNP-NAC uptake (DNP-NAC: 1 uM, Propyl-NAC: 1000 uM) in Xenopus laevis oocytes; format: functional, cell-based; conditions: oocyte
[13] = target: T1, Solute carrier family 22 member 6; assay: TP_TRANSPORTER: inhibition of DNP-NAC uptake (DNP-NAC: 1 uM, Butyl-NAC: 1000 uM) in Xenopus laevis oocytes; format: functional, cell-based; conditions: oocyte
[14] = target: T1, Solute carrier family 22 member 6; assay: TP_TRANSPORTER: inhibition of PAH uptake (PAH: 20 uM, Propyl-NAC: 1000 uM) in Xenopus laevis oocytes; format: functional, cell-based; conditions: oocyte
[15] = target: T1, Solute carrier family 22 member 6; assay: TP_TRANSPORTER: inhibition of PAH uptake in Xenopus laevis oocytes; format: functional, cell-based, Oocyte
[16] = target: T1, Solute carrier family 22 member 6; assay: TP_TRANSPORTER: inhibition of DNP-NAC uptake (DNP-NAC: 1 uM, Dodecyl-NAC: 1000 uM) in Xenopus laevis oocytes; format: functional, cell-based; conditions: oocyte
[17] = target: T1, Solute carrier family 22 member 6; assay: TP_TRANSPORTER: inhibition of PAH uptake (PAH: 20 uM, Dodecyl-NAC: 500 uM) in Xenopus laevis oocytes; format: functional, cell-based; conditions: oocyte
[18] = target: T1, Solute carrier family 22 member 6; assay: TP_TRANSPORTER: inhibition of PAH uptake (PAH: 20 uM, N-acetylnorleucine: 1000 uM) in Xenopus laevis oocytes; format: functional, cell-based; conditions: oocyte
[19] = target: T1, Solute carrier family 22 member 6; assay: TP_TRANSPORTER: inhibition of DNP-NAC uptake (DNP-NAC: 1 uM, N-acetylnorleucine: 1000 uM) in Xenopus laevis oocytes; format: functional, cell-based; conditions: oocyte
[20] = target: T1, Solute carrier family 22 member 6; assay: TP_TRANSPORTER: inhibition of DNP-NAC uptake (DNP-NAC: 1 uM, Benzyl-NAC: 1000 uM) in Xenopus laevis oocytes; format: functional, cell-based; conditions: oocyte
[21] = target: T1, Solute carrier family 22 member 6; assay: TP_TRANSPORTER: inhibition of DNP-NAC uptake (DNP-NAC: 1 uM, NAC: 1000 uM) in Xenopus laevis oocytes; format: functional, cell-based; conditions: oocyte
[22] = substrate: CC(=O)N[C@@H](CSc1ccc([N+](=O)[O-])cc1[N+](=O)[O-])C(=O)O; assay: TP_TRANSPORTER: uptake in Xenopus laevis oocytes; format: functional, cell-based, Oocyte

Q: Which Activity [1] does the source give for `CC(=O)NC(CS/C(Cl)=C(\Cl)C(Cl)=C(Cl)Cl)C(=O)O` (stereo not given) here?
A: inhibitor [(at a rough estimate) <5 % of control]

Q: What about the Activity [2] of the same molecule?
A: inhibitor [(at a rough estimate) 15 % of control]

Q: What does the source list for `CC(=O)N[C@@H](CS/C(Cl)=C\Cl)C(=O)O`?
A: Activity [3]: inhibitor [(at a rough estimate) 5 % of control]; Activity [4]: inhibitor [(at a rough estimate) 25 % of control]

Q: What does the source list for `C=CCSCC(NC(C)=O)C(=O)O` (stereo not given)?
A: Activity [5]: inhibitor [(at a rough estimate) 15 % of control]; Activity [6]: inhibitor [(at a rough estimate) 10 % of control]

Q: What does the source list for `CC(=O)NC(CSCCCO)C(=O)O` (stereo not given)?
A: Activity [7]: inhibitor [(at a rough estimate) 5 % of control]; Activity [8]: inhibitor [(at a rough estimate) 30 % of control]

Q: Which Activity [9] does the source give for `CC(=O)NC(CSCCCc1ccccc1)C(=O)O` (stereo not given) here?
A: inhibitor [(at a rough estimate) 10 % of control]

Q: What about the Activity [10] of the same molecule?
A: inhibitor [(at a rough estimate) 5 % of control]

Q: Which results are given for `CCCCSCC(NC(C)=O)C(=O)O` (stereo not given)?
A: Activity [11]: inhibitor [(at a rough estimate) 5 % of control]; Activity [12]: inhibitor [(at a rough estimate) 30 % of control]; Activity [13]: inhibitor [(at a rough estimate) 5 % of control]; Activity [14]: inhibitor [(at a rough estimate) 10 % of control]

Q: For `CCCCC/C=C\C\C=C/C=C/C=C/[C@@H](SC[C@H](NC(C)=O)C(=O)O)[C@@H](O)CCCC(=O)O`, which Ki [15] is on record?
A: 9000 nM

Q: With `CCSC[C@@H](NC(C)=O)C(=O)O` as the molecule, how does the Ki [15] read?
A: 1100 nM

Q: What does the source list for `CCCCCCCCCCCCSC[C@@H](NC(C)=O)C(=O)O`?
A: Activity [16]: inhibitor [(at a rough estimate) <5 % of control]; Activity [17]: inhibitor [(at a rough estimate) 15 % of control]

Q: With `CCCC[C@H](NC(C)=O)C(=O)O` as the molecule, how does the Activity [18] read?
A: inhibitor [(at a rough estimate) 15 % of control]

Q: What about the Activity [19] of the same molecule?
A: inhibitor [(at a rough estimate) 35 % of control]

Q: Which Ki [15] does the source give for `COC(=O)[C@@H](CSCc1ccccc1)NC(C)=O` here?
A: 400 nM

Q: And the Activity [20]?
A: inhibitor [(at a rough estimate) 30 % of control]

Q: For `CC(=O)N[C@@H](CSc1ccc([N+](=O)[O-])cc1[N+](=O)[O-])C(=O)O`, which Ki [15] is on record?
A: 1900 nM

Q: How did the Activity [21] turn out when `CC(=O)N[C@@H](CS)C(=O)O` [ACETYLCYSTEINE] was run?
A: inhibitor [(at a rough estimate) 60 % of control]

B1: Solute carrier family 22 member 6 (Rattus norvegicus) (protein)
chain: MAFNDLLKQVGGVGRFQLIQVTMVVAPLLLMASHNTLQNFTAAIPPHHCRPPANANLSKDGGLEAWLPLDKQGQPESCLRFTSPQWGPPFYNGTEANGTRVTEPCIDGWVYDNSTFPSTIVTEWNLVCSHRAFRQLAQSLYMVGVLLGAMVFGYLADRLGRRKVLILNYLQTAVSGTCAAYAPNYTVYCVFRLLSGMSLASIAINCMTLNVEWMPIHTRAYVGTLIGYVYSLGQFLLAGIAYAVPHWRHLQLVVSVPFFIAFIYSWFFIESARWYSSSGRLDLTLRALQRVARINGKQEEGAKLSIEVLRTSLQKELTLSKGQASAMELLRCPTLRHLFLCLSMLWFATSFAYYGLVMDLQGFGVSMYLIQVIFGAVDLPAKFVCFLVINSMGRRPAQMASLLLAGICILVNGIIPKSHTIIRTSLAVLGKGCLASSFNCIFLYTGELYPTVIRQTGLGMGSTMARVGSIVSPLVSMTAEFYPSMPLFIFGAVPVVASAVTALLPETLGQPLPDTVQDLKSRSRGKQNQQQQEQQKQMMPLQASTQEKNGL
Q: B1 was tested. Which Km [22] did it give?
A: 2 µM
